Test results as given in US7473688B2, “Indolobenzazepine HCV NS5B inhibitors” (Bristol-Myers Squibb Company, priority 2005, dated 2009).
Like-named read-outs stand apart in the source and are kept apart here.

Columns and labels:
[1] = biological target: T1, HCV NS5B (Hepatitis C virus genotype 1b, UniProt Q9WMX2); test: HCV NS5B RdRp enzyme assay (preincubation protocol); type: biochemical; settings: Table 1, read-out: IC50*
T1 construct: The protein was expressed with an 18 amino acid C-terminal truncation to enhance the solubility; made in house; host or cells: E. coli BL21 (DE3), pET21a
T1 sequence (Q9WMX2 2420-2992): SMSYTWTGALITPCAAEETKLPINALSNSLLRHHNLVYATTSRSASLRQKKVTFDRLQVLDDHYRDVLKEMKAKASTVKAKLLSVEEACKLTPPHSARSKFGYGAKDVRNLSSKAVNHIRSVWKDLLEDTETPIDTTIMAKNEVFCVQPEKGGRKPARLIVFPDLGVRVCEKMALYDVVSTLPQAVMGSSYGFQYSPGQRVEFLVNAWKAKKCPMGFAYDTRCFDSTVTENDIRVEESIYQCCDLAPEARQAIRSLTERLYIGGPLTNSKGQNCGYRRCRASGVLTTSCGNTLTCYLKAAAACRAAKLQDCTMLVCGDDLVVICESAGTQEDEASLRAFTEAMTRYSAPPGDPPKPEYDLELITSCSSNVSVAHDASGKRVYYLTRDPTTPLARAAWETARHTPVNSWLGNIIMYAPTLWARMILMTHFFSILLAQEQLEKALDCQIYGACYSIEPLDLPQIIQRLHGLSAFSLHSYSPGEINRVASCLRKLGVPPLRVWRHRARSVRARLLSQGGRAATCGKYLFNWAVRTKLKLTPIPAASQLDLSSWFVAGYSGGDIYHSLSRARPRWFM
Procedure, shortened: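 C-terminally truncated (Δ18) genotype 1b NS5B from E. coli, 14 nM, added to compound, then polyA template (0.2 nM), 3H-UTP (0.29 μM) and oligo-dT12 primer precaptured on streptavidin SPA beads. 4 h at 30 °C, pH 7.5, 2% DMSO; SPA readout; IC50 from seven concentrations by logistic fit.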

[2] = tested on: HCV replicon; test: HCV replicon FRET assay; type: cell-based; settings: Hepatitis C virus
Excerpt: FRET Assay Preparation. To perform the HCV FRET screening assay, 96-well cell culture plates were used. The FRET peptide (Anaspec, Inc.) (Taliani et al., Anal. Biochem. 1996, 240, 60-67) contains a fluorescence donor, EDANS, near one end of the peptide and an acceptor, DABCYL, near the other end. The fluorescence of the peptide is quenched by […] resonance energy transfer (RET) between the donor and the acceptor, but as the NS3 protease cleaves the peptide the products are released from RET quenching and the fluorescence of the donor becomes apparent. The assay reagent was made as follows: 5× cell Luciferase cell culture lysis reagent from Promega (#E153A) diluted to 1× with dH2O, NaCl added to 150 mM final, the FRET peptide diluted to 20 uM final from a 2 mM stock.
To prepare plates, HCV replicon cells, with or without a Renilla luciferase reporter gene, were trypsinized and placed into each well of a 96-well plate with titrated test compounds added in columns 3 through 12; columns 1 and 2 contained a control compound (HCV protease inhibitor), and the bottom row contained cells without compound. The plates were then placed in a CO2 incubator at 37° C.
Assays. Subsequent to addition of the test compounds described above (FRET Assay Preparation), at various times the plate was removed and Alamar blue solution (Trek Diagnostics, #00-100) was added per well as a measure of cellular toxicity. After reading in a Cytoflour 4000 instrument (PE Biosystems), plates were rinsed with PBS and then used for FRET assay by the addition of 30 ul of the FRET peptide assay reagent described above (FRET Assay Preparation) per well. The plate was then placed into the Cytoflour 4000 instrument which had been set to 340 excite/490 emission, automatic mode for 20 cycles and the plate read in a kinetic mode. Typically, the signal to noise using an endpoint analysis after the reads was at least three-fold. Alternatively, after Alamar blue reading, plates were rinsed with PBS, 50 ul of DMEM (high glucose) without phenol red was added and plates were then used for luciferase assay using the Promega Dual-Glo Luciferase Assay System.
Compound analysis was determined by quantification of the relative HCV replicon inhibition and the relative cytotoxicity values. To calculate cytoxicity values, the average Alamar Blue fluorescence signals from the control wells were set as 100% non-toxic. The individual signals in each of the compound test wells were then divided by the average control signal and multiplied by 100% to determine […]. To calculate the HCV replicon inhibition values, an average background value was obtained from the two wells containing the highest amount of HCV protease inhibitor at the end of the assay period. These numbers were similar to those obtained from naïve Huh-7 cells.
The background numbers were then subtracted from the average signal obtained from the control wells and this number was used as 100% activity. The individual signals in each of the compound test wells were then divided by the averaged control values after background subtraction and multiplied by 100% to determine percent activity. EC50 values for a protease inhibitor titration were calculated as the concentration which caused a 50% reduction in FRET or luciferase activity. The two numbers generated for the compound plate, percent cytoxicity and percent activity were used to determine compounds of interest for further analysis.

[3] = Table 1, FRET assay, read-out: EC50*

Structure (SMILES)	IC50 [1] [nM]	EC50 [2, 3] [nM]	EC50 [2] [nM]
CN(C)S(=O)(=O)NC(=O)c1ccc2c(C3CCCCC3)c3n(c2c1)CC(C(=O)N1CCN(C(=O)c2ccccc2)CC1)=Cc1ccccc1-3	10 to 1000	70 to 1000	–
C[C@@H]1CN(C(=O)c2ccccc2)CCN1C(=O)C1=Cc2ccccc2-c2c(C3CCCCC3)c3ccc(C(=O)NS(=O)(=O)N(C)C)cc3n2C1	10 to 1000	70 to 1000	–
CN(C)S(=O)(=O)NC(=O)c1ccc2c(C3CCCCC3)c3n(c2c1)CC(C(=O)N1CCN2C(=O)c4ccccc4C2C1)=Cc1ccccc1-3 (stereo not drawn)	10 to 1000	70 to 1000	–
CN1CCCC(CN(C)C(=O)C2=Cc3ccccc3-c3c(C4CCCCC4)c4ccc(C(=O)NS(=O)(=O)N(C)C)cc4n3C2)C1 (stereo not drawn)	10 to 1000	70 to 1000	–
O=C(Nc1nccs1)C1=Cc2ccccc2-c2c(C3CCCCC3)c3ccc(C(=O)O)cc3n2C1	10 to 1000	1000 to 10000	–
O=C(O)c1ccc2c(C3CCCCC3)c3n(c2c1)CC(C(=O)N1C2CCC1CC2)=Cc1ccccc1-3	10 to 1000	–	70 to 1000
CN(C)S(=O)(=O)NC(=O)c1ccc2c(C3CCCCC3)c3n(c2c1)CC(C(=O)N1C2CCC1CC2)=Cc1ccccc1-3	10 to 1000	–	70 to 1000
COC(=O)c1ccc2c(C3CCCCC3)c3n(c2c1)CC(C(=O)N1CC2(CCN(C)CC2)C1)=Cc1ccccc1-3	> 1000	1000 to 10000	–
CN1CCC2(CC1)CN(C(=O)C1=Cc3ccccc3-c3c(C4CCCCC4)c4ccc(C(=O)O)cc4n3C1)C2	10 to 1000	70 to 1000	–
CN(C)S(=O)(=O)NC(=O)c1ccc2c(C3CCCCC3)c3n(c2c1)CC(C(=O)Nc1nccs1)=Cc1ccccc1-3	10 to 1000	70 to 1000	–
CN(C)S(=O)(=O)NC(=O)c1ccc2c(C3CCCCC3)c3n(c2c1)CC(C(=O)N1C[C@@H]2C[C@H]1CN2C(=O)OC(C)(C)C)=Cc1ccccc1-3	10 to 1000	70 to 1000	–
CN(C)S(=O)(=O)NC(=O)c1ccc2c(C3CCCCC3)c3n(c2c1)CC(C(=O)N1C[C@@H]2C[C@H]1CO2)=Cc1ccccc1-3	10 to 1000	70 to 1000	–
CCN(C(C)=O)C1CCN(C(=O)C2=Cc3ccccc3-c3c(C4CCCCC4)c4ccc(C(=O)NS(=O)(=O)N(C)C)cc4n3C2)C1 (stereo not drawn)	10 to 1000	70 to 1000	–
CN(CCC1OCCO1)C(=O)C1=Cc2ccccc2-c2c(C3CCCCC3)c3ccc(C(=O)NS(=O)(=O)N(C)C)cc3n2C1	10 to 1000	70 to 1000	–
COC[C@H]1CCCN1C(=O)C1=Cc2ccccc2-c2c(C3CCCCC3)c3ccc(C(=O)NS(=O)(=O)N(C)C)cc3n2C1	10 to 1000	70 to 1000	–
COCCN(CCOC)C(=O)C1=Cc2ccccc2-c2c(C3CCCCC3)c3ccc(C(=O)NS(=O)(=O)N(C)C)cc3n2C1	10 to 1000	70 to 1000	–
COCCN(C)C(=O)C1=Cc2ccccc2-c2c(C3CCCCC3)c3ccc(C(=O)NS(=O)(=O)N(C)C)cc3n2C1	10 to 1000	70 to 1000	–
CN(C)S(=O)(=O)NC(=O)c1ccc2c(C3CCCCC3)c3n(c2c1)CC(C(=O)N1CCC(CNC(=O)c2ccccc2)C1)=Cc1ccccc1-3 (stereo not drawn)	10 to 1000	70 to 1000	–
CN(C)S(=O)(=O)NC(=O)c1ccc2c(C3CCCCC3)c3n(c2c1)CC(C(=O)NC1CCOCC1)=Cc1ccccc1-3	10 to 1000	70 to 1000	–
COC(=O)c1ccc2c(C3CCCCC3)c3n(c2c1)CC(NC(=O)N1CCOCC1)Cc1ccccc1-3 (stereo not drawn)	> 1000	> 120	–
O=C(O)c1ccc2c(C3CCCCC3)c3n(c2c1)CC(NC(=O)N1CCOCC1)Cc1ccccc1-3 (stereo not drawn)	10 to 1000	70 to 1000	–
COC(=O)c1ccc2c(C3CCCCC3)c3n(c2c1)CC(C(=O)N1CCC(C(N)=O)C1)=Cc1ccccc1-3 (stereo not drawn)	> 1000	1000 to 10000	–
NC(=O)C1CCN(C(=O)C2=Cc3ccccc3-c3c(C4CCCCC4)c4ccc(C(=O)O)cc4n3C2)C1 (stereo not drawn)	10 to 1000	1000 to 10000	–
CN(C)S(=O)(=O)NC(=O)c1ccc2c(C3CCCCC3)c3n(c2c1)CC(C(=O)N1CCC(N2CCOCC2)CC1)=Cc1cc(O)ccc1-3	10 to 1000	70 to 1000	–
